Patent publication US6916933B2, “4-pyridinyl-n-acyl-l-phenylalanines” (Hoffman-La Roche Inc., priority 1999, dated 2005)

These compounds were tested against T1, cell-surface VLA-4 (α4β1 integrin) on Ramos cells binding to immobilized VCAM-1 (Homo sapiens, UniProt P05556+P13612) (assay: Ramos (VLA-4)/VCAM-1 Cell-Based Screening Assay (cell adhesion)). Conditions: Calcein-AM labeled Ramos cells, VCAM-1 coated plates.
T1 construct: Ramos cells bearing cell-surface VLA-4; endogenous in cells; host or cells: Ramos cells (VLA-4); VCAM-1 partner made in CHO cells
T1 sequence (P13612 34-1032): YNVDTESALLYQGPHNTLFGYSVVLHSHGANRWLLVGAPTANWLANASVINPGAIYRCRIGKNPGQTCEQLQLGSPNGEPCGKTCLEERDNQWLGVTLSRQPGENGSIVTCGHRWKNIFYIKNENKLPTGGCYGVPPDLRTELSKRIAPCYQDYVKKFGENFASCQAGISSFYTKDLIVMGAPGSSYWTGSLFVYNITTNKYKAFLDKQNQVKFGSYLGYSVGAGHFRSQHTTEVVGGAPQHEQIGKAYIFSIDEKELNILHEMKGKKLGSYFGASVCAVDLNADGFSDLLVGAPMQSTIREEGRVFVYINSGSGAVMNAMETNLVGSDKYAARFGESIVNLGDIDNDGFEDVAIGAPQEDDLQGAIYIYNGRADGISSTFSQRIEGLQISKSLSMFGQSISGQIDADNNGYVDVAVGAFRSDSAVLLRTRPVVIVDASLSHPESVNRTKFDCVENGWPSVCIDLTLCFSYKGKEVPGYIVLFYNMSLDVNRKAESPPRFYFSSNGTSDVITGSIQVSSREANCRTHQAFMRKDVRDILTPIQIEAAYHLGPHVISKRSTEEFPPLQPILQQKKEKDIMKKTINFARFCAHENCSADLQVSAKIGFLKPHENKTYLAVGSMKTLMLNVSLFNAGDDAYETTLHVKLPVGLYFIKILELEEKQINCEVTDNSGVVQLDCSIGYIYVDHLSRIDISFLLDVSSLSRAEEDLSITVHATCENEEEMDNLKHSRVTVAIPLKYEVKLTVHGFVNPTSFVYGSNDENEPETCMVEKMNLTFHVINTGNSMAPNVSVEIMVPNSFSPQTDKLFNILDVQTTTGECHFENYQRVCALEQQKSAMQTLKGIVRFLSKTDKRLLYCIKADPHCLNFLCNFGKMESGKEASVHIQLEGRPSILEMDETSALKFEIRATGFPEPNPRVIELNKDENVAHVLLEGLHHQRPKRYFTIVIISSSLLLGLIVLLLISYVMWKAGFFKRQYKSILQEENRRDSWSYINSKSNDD
T1 sequence (P05556 21-798): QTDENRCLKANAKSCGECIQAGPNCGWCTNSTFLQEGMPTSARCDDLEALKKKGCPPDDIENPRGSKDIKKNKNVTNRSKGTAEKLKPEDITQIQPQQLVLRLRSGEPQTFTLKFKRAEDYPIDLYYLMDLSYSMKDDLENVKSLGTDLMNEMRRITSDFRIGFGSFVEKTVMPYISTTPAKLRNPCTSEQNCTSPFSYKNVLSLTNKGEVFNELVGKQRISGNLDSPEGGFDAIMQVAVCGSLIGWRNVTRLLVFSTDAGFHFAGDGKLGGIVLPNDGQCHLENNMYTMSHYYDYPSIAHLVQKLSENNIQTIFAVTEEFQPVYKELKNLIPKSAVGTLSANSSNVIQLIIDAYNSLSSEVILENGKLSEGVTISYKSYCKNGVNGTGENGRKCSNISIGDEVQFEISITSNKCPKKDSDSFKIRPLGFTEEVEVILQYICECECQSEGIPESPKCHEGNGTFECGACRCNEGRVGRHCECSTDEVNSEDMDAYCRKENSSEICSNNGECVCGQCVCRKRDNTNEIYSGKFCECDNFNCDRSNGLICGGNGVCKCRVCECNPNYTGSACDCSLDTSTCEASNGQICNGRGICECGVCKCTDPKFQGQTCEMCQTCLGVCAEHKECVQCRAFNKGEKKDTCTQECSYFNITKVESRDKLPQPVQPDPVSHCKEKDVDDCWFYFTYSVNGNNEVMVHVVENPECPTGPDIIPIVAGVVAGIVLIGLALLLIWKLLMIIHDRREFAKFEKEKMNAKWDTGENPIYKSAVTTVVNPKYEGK
Protocol: Ramos (VLA-4)/VCAM-1 Cell-Based Screening Assay Protocol
Soluble recombinant human VCAM-1 (mixture of 5- and 7-Ig domain) was purified from CHO cell culture media by immunoaffinity chromatography and maintained in a solution containing 0.1 M Tris-glycine (pH 7.5), 0.1 M NaCl, 5 mM EDTA, 1 mM PMSF, […] NaN3 and 10 μg/mL leupeptin. Calcein-AM was purchased from Molecular Probes Inc.
VLA-4 (α4β1 integrin) antagonist activity, defined as ability to compete with cell-surface VLA-4 for binding to immobilized VCAM-1, was quantitated using a Ramos-VCAM-1 cell adhesion assay. Ramos cells bearing cell-surface VLA-4, were labeled with a fluorescent dye (Calcein-AM) and allowed to bind VCAM-1 in the presence or absence of test compounds. A reduction in fluorescence intensity associated with adherent cells (% inhibition) reflected competitive inhibition of VLA-4 mediated cell adhesion by the test compound.
Initially, this entailed coating 96 well plates (Nunc Maxisorp) with recombinant human VCAM-1 (100 ng in 100 μl PBS), sealing each plate and allowing the plates to stand at 4° C. for ≈18 hr. The VCAM-coated plates were subsequently washed twice with 0.05% Tween-20 in PBS, and then blocked for 1 hr (room temperature) with 200 μl of Blocking Buffer (1% BSA/0.02% thimerosal) to reduce non-specific binding. Following the incubation with Blocking Buffer, plates were inverted, blotted and the remaining buffer aspirated. Each plate was then washed with 300 μl PBS, inverted and the remaining PBS aspirated.
Test compounds were dissolved in 100% DMSO and then diluted 1:25 in VCAM Cell Adhesion Assay Buffer (4 mM CaCl2, 4 mM MgCl2 in 50 mM TRIS-HCl, pH 7.5) (final DMSO=4%). A series of eight 1:4 dilutions were performed for each compound (general concentration range of 1 nM-12,500 nM). 100 μl/well of each dilution was added to the VCAM-coated plates, followed by 100 μl of Ramos cells (200,000 cells/well in 1% BSA/PBS). Plates containing test compounds and Ramos cells were allowed to incubate for 45 min at room temperature, after which 165 μl/well PBS was added. Plates were inverted to remove non-adherent cells, blotted and 300 μL/well PBS added. Plates were again inverted, blotted and the remaining buffer gently aspirated. 100 μl Lysis Buffer (0.1% SDS in 50 mM TRIS-HCl, pH 8.5) was added to each well and agitated for 2 min on a rotary shaking platform. The plates were then read for fluorescence intensity on a Cytofluor 2300 (Millipore) fluorecence measurement system (excitation=485 nm, emission=530 nm).
The results are provided in the following Table II (A=IC50<100 nM, B=IC50<10000 nM, C=IC50<5,000 nM): […]
In the case of Cc1cccc(Cl)c1C(=O)N[C@@H](Cc1ccc(-c2cccn(C)c2=O)cc1)C(=O)O [Example 30, N-[(2-chloro-6-methylphenyl)carbonyl]-4-(1-methyl-2-oxo-3-pyridinyl)-L-phenylalanine], the IC50 is reported as < 10 µM. In the case of Cc1ccn(C)c(=O)c1-c1ccc(C[C@H](NC(=O)c2c(Cl)cccc2Cl)C(=O)O)cc1 [Example 31, N-[(2,6-dichlorophenyl)carbonyl]-4-(1,4-dimethyl-2-oxo-3-pyridinyl)-L-phenylalanine], the IC50 is reported as < 10 µM. In the case of Cc1cccc(Cl)c1C(=O)N[C@@H](Cc1ccc(-c2c(C)ccn(C)c2=O)cc1)C(=O)O [Example 32, N-[(2-chloro-6-methylphenyl)carbonyl]-4-(1,4-dimethyl-2-oxo-3-pyridinyl)-L-phenylalanine], the IC50 is reported as < 10 µM. With Cc1cc(C(F)(F)F)c(-c2ccc(C[C@H](NC(=O)c3c(Cl)cccc3Cl)C(=O)O)cc2)c(=O)n1C [Example 33, N-[(2,6-dichlorophenyl)carbonyl]-4-[1,6-dimethyl-4-(trifluoromethyl)-2-oxo-3-pyridinyl]-L-phenylalanine] the IC50 was < 0.1 µM. CCc1cccc(C)c1C(=O)N[C@@H](Cc1ccc(-c2c(C(F)(F)F)cc(C)n(C)c2=O)cc1)C(=O)O [Example 34, N-[(2-ethyl-6-methylphenyl)carbonyl]-4-[1,6-dimethyl-4-(trifluoromethyl)-2-oxo-3-pyridinyl]-L-phenylalanine] was tested, and the IC50 was < 10 µM. Cc1cccc(C(C)C)c1C(=O)N[C@@H](Cc1ccc(-c2c(C(F)(F)F)cc(C)n(C)c2=O)cc1)C(=O)O [Example 35, N-[(2-(1-methylethyl)-6-methylphenyl)carbonyl]-4-[1,6-dimethyl-4-(trifluoromethyl)-2-oxo-3-pyridinyl]-L-phenylalanine] was tested, and the IC50 was < 10 µM. In the case of Cc1cccc(Cl)c1C(=O)N[C@@H](Cc1ccc(-c2c(C(F)(F)F)cc(C)n(C)c2=O)cc1)C(=O)O [Example 36, N-[(2-chloro-6-methylphenyl)carbonyl]-4-[1,6-dimethyl-4-(trifluoromethyl)-2-oxo-3-pyridinyl]-L-phenylalanine], the IC50 is reported as < 0.1 µM. COCCC1(C(=O)N[C@@H](Cc2ccc(-c3c(C(F)(F)F)cc(C)n(C)c3=O)cc2)C(=O)O)CCCC1 [Example 37, N-[[1-(2-methoxyethyl)cyclopentyl]carbonyl]-4-[1,6-dimethyl-4-(trifluoromethyl)-2-oxo-3-pyridinyl]-L-phenylalanine] was tested, and the IC50 was < 10 µM.
